Assay type: physicochemical
Text: The slurry should be thoroughly agitated during preparation with a suitable device (like an electric lab stirrer). The desired temperature for heating the slurry will vary depending on the solubility of the active agent and the temperature that the active agent begins to degrade.

SMILES: Cl.N[C@H]1C(O)O[C@H](CO)[C@@H](O)[C@@H]1O (stereo partly shown) [Glucosamine HCl]
- temperature dependent solubility in water: greater than 60 °C

Source: US20080268036A1, “Co-processing of active pharmaceutical/nutraceutical ingredients” (JRS Pharma, priority 2007, published 2008)
